Source: US12384780B2, “PARP1 inhibitors and uses thereof” (XinThera, Inc., priority 2022, dated 2025)

How the values were obtained:
[1] = system: MDA-MB-436 (mutated BRCA1) cells; assay: Cell growth inhibition assay (CellTiter-Glo), MDA-MB-436; assay type: cell-based; conditions: 500 cells/well, 7 days, CellTiter Glo 2.0; for EC50: Homo sapiens, MDA-MB-436, 168 h, read-out: MDA-MB-436 pEC50 (converted)
Experimental: (§1) Cell proliferation was measured through the cell viability assay using DLD-1 BRCA2(−/−) and parental isogenic pair and MDA-MB-436 (mutated BRCA1) cell lines. The CellTiter-Glo (CTG) based cell viability assay is designed to determine the number of viable cells in the culture because of compound effect, by quantifying ATP, which indicates the presence of metabolically active cells.
(§2) DLD-1 BRCA2(−/−) and parental isogenic pair were cultured in RPMI 1640 supplemented with […] (FBS), and […] cells were cultured in DMEM supplemented with 10% FBS. Both were cultured at 37° C. with […]. Invention compounds were distributed to the 384 well plate (Corning, 3764) using Echo acoustic liquid handler to form a 1:3 serially diluted final concentration with top dose of 10 or 30 μM. The cells were seeded into the plate in the density of 50 cells/well (DLD-1 parental), 200 cells/well (DLD-1 BRCA2−/−), or 500 cells/well (MDA-MB-436). After a short spun, the cells were cultured in a well moisturized incubator at 37° C. with 5% CO2 for 7 days without disturbance. The cell viability was measured by CellTiter Glo 2.0 assay kit (Promega, G9243), and growth inhibition rate was calculated and plotted against final compound concentration, and the data were fitted in Xfit to generate IC50 values.

[2] = molecular target: T1, PARP2 (Homo sapiens, UniProt Q9UGN5); assay: Biochemical fluorescent polarization (FP) assay, displacement of PARPi-FL, PARP2; assay type: binding; conditions: 20 nM protein, 3 nM PARPi-FL, 4 h at room temperature; read-out: FP PARP2 pIC50 (converted)
T1 construct: made in house
T1 sequence (Q9UGN5 whole entry): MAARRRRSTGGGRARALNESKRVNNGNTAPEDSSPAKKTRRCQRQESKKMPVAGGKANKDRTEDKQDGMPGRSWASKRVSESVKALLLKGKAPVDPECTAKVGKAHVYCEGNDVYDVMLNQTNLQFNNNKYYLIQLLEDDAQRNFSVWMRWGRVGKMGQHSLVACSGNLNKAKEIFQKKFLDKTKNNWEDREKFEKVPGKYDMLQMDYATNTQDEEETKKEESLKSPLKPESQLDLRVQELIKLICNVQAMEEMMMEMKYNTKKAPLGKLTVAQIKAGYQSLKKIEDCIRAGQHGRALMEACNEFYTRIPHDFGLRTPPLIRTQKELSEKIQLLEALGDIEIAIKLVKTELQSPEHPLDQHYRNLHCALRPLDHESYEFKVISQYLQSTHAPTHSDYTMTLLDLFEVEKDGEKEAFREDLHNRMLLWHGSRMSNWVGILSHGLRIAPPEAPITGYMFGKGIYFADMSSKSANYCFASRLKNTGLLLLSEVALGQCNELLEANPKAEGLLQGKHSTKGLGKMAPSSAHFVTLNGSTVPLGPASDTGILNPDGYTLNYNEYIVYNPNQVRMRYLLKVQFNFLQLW
Experimental: (§3) Compounds were characterized using an assay measuring the displacement of a commercially available fluorescently labeled PARP 1/2 inhibitor (PARPi-FL, Tocris Biosciences, #6461) as exemplified in assays performed in WO2014/064149 and WO2021/013735A1. The assay was performed utilizing the following method: Compounds were dissolved in DMSO an Echo550 liquid handler was utilized to make serial dilations in the desired concentration range in Optiplate-384F plates. 100% DMSO was used for the high (with protein) and low (without protein) control samples. 20 nL of compound or DMSO alone was added to individual assay plate wells. PARP1 and PARP2 protein were expressed, purified, and diluted in assay buffer containing 50 mM Tris pH 8.0, 0.001% Triton X-100, 10 mM MgCl2, 150 mM NaCl to a final concentration of 20 nM. The PARPi-FL was then added at a final concentration of 3 nM. The assay plate was centrifuged at 1000 rpm for 1 min and incubated for 4 h at room temperature. […] [formula]

[3] = system: DLD-1 BRCA2(−/−) cells; assay: Cell growth inhibition assay (CellTiter-Glo), DLD-1 BRCA2(−/−); assay type: cell-based; conditions: 200 cells/well, 7 days, CellTiter Glo 2.0; for EC50: Homo sapiens, DLD-1, 168 h, read-out: DLD-1 BRCA2(−/−) pEC50 (converted)
Experimental: as §1, §2

[4] = molecular target: T2, PARP1 (Homo sapiens, UniProt P09874); assay: Biochemical fluorescent polarization (FP) assay, displacement of PARPi-FL, PARP1; assay type: binding; conditions: 20 nM protein, 3 nM PARPi-FL, 4 h at room temperature; read-out: FP PARP1 pIC50 (converted)
T2 construct: made in house
T2 sequence (P09874 whole entry): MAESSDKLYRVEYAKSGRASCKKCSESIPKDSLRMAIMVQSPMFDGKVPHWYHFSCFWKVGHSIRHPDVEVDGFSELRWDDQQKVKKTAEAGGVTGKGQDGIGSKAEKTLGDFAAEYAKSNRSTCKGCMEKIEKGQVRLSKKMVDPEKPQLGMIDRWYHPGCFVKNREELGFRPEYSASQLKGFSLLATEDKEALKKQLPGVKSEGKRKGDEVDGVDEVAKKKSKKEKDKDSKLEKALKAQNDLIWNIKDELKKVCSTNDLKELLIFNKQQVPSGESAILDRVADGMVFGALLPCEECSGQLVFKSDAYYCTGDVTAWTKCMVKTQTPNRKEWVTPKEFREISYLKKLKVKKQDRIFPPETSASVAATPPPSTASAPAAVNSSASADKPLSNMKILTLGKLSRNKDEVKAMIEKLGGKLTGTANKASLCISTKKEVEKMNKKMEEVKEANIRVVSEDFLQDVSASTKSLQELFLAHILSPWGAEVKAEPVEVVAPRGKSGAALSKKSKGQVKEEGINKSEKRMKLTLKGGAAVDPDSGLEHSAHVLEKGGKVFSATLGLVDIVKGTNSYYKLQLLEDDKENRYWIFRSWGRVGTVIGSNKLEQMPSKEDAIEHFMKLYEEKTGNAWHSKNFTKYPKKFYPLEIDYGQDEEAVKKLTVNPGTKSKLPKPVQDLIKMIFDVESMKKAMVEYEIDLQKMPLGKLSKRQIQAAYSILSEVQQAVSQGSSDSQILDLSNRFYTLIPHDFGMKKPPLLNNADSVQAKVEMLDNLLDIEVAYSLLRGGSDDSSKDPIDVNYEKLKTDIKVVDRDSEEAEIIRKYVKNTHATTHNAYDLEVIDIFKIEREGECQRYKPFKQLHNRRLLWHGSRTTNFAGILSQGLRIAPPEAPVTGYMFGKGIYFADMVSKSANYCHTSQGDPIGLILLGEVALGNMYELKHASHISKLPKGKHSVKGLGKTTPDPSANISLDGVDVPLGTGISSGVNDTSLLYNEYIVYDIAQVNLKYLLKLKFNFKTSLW
Experimental: as §3

| Structure (SMILES) | EC50 [1] | IC50 [2] | EC50 [3] | IC50 [4] | MDA-MB-436 pEC50 [1] | DLD-1 BRCA2(−/−) pEC50 [3] |
| --- | --- | --- | --- | --- | --- | --- |
| CCc1cc2ncc(CN3CCN(c4ccc(C#N)cn4)[C@H](C)C3)cc2[nH]c1=O [Example 21] | 12.6 nM | 1260 nM | 7.94 nM | 5.01 nM | – | – |
| Cc1cc2ncc(CN3CCN(c4ccc(C#N)cn4)[C@H]4C[C@H]43)cc2[nH]c1=O (single isomer, unassigned) [Example 19] | 158 nM | > 100000 nM | 200 nM | 6.31 nM | – | – |
| N#Cc1ccc(N2CCN(Cc3cnc4cc(C(F)F)c(=O)[nH]c4c3)CC2)c(C(F)F)c1 [Example 80] | 1 nM | – | 1.26 nM | 15.8 nM | – | – |
| Cc1c(C(F)F)c(=O)[nH]c2cc(CN3CCN(c4ccc(C#N)cn4)CC3)cnc12 [Example 42, 6-(4-{[7-(difluoromethyl)-8-methyl-6-oxo-5H-1,5-naphthyridin-3-yl]methyl}piperazin-1-yl)pyridine-3-carbonitrile] | 1 nM | 316 nM | 2 nM | 50.1 nM | – | – |
| Cc1nc2ccc(CN3CCN(c4ccc(C#N)nc4Cl)CC3)c(F)c2[nH]c1=O [Example 73] | 15.8 nM | – | 20 nM | 25.1 nM | – | – |
| Cc1cc2ncc(CN3CCN(c4ccc(C#N)c(F)c4)CC3)cc2[nH]c1=O [Example 44] | 1.58 nM | 3160 nM | 2.51 nM | 10 nM | – | – |
| N#Cc1ccc(N2CCN(Cc3cnc4cc(Cl)c(=O)[nH]c4c3)CC2)c(F)c1 [Example 76] | 5.01 nM | – | 5.01 nM | 63.1 nM | – | – |
| N#Cc1ccc(N2CCN(Cc3cnc4cc(Br)c(=O)[nH]c4c3)CC2)nc1 [Example 60, 6-{4-[(7-bromo-6-oxo-5H-1,5-naphthyridin-3-yl)methyl]piperazin-1-yl}pyridine-3-carbonitrile] | 1.26 nM | 2000 nM | 1.58 nM | 6.31 nM | – | – |
| CCc1cc2ncc(CN3CCN(c4cnc(Cl)cc4C#N)CC3)cc2[nH]c1=O [Example 65] | 2.51 nM | – | 3.16 nM | – | – | – |
| Cc1c(C(F)F)c2ncc(CN3CCN(c4ccc(C#N)cn4)CC3)cc2[nH]c1=O [Example 82, 6-(4-((8-(difluoromethyl)-7-methyl-6-oxo-5,6-dihydro-1,5-naphthyridin-3-yl)methyl)piperazin-1-yl)nicotinonitrile] | 39.8 nM | – | 100 nM | 31.6 nM | – | – |
| N#Cc1ccc(N2CCN(Cc3cnc4cc(C5CCCO5)c(=O)[nH]c4c3)CC2)nc1 (single isomer, unassigned) [Example 69, 6-(4-{[6-oxo-7-(oxolan-2-yl)-5H-1,5-naphthyridin-3-yl]methyl}piperazin-1-yl)pyridine-3-carbonitrile] | – | 39800 nM | – | 10 nM | 7.8 | 7.4 |
| Cc1nc2ccc(CN3CCN(c4ccc(C#N)cn4)CC3)c(F)c2[nH]c1=O [Example 70] | 31.6 nM | – | 25.1 nM | 10 nM | – | – |
| Cc1cc2ncc([C@@H](C)N3CCN(c4ccc(C#N)cn4)[C@H](C)C3)cc2[nH]c1=O (single isomer, unassigned) [Example 28, rel-6-[(2R)-2-methyl-4-[(1R*)-1-(7-methyl-6-oxo-5H-1,5-naphthyridin-3-yl)ethyl]piperazin-1-yl]pyridine-3-carbonitrile] | 63.1 nM | > 100000 nM | 63.1 nM | > 100 nM | – | – |
| N#Cc1ccc(N2CCN(Cc3cnc4cc(C5CCCO5)c(=O)[nH]c4c3)CC2)nc1 (single isomer, unassigned) [Example 68, 6-(4-{[6-oxo-7-(oxolan-2-yl)-5H-1,5-naphthyridin-3-yl]methyl}piperazin-1-yl)pyridine-3-carbonitrile] | 25.1 nM | 79400 nM | 39.8 nM | 12.6 nM | – | – |
| Cc1nc2ccc(CN3CCN(c4ccc(C#N)nc4F)CC3)c(F)c2[nH]c1=O [Example 74] | 31.6 nM | – | 20 nM | 15.8 nM | – | – |
| Cc1cc(C#N)ccc1N1CCN(Cc2cnc3cc(C(F)F)c(=O)[nH]c3c2)CC1 [Example 75] | 0.501 nM | – | 0.631 nM | 25.1 nM | – | – |
| C#Cc1cc2ncc(CN3CCN(c4ccc(C#N)nc4)CC3)cc2[nH]c1=O [Example 1, 5-{4-[(7-ethynyl-6-oxo-5H-1,5-naphthyridin-3-yl)methyl]piperazin-1-yl}pyridine-2-carbonitrile] | 63.1 nM | – | 63.1 nM | 15.8 nM | – | – |

| Structure (SMILES) | EC50 [1] | IC50 [2] | EC50 [3] | IC50 [4] | MDA-MB-436 pEC50 [1] | DLD-1 BRCA2(−/−) pEC50 [3] |
| --- | --- | --- | --- | --- | --- | --- |
| Cc1cc2ncc(CN3CCN(c4ccc(Cl)cc4C#N)CC3)cc2[nH]c1=O [Example 51] | 2.51 nM | – | 3.98 nM | 20 nM | – | – |
| Cc1nc2c(F)cc(CN3CCN(c4ccc(C#N)cn4)CC3)cc2[nH]c1=O [Example 49, 6-{4-[(8-fluoro-2-methyl-3-oxo-4H-quinoxalin-6-yl)methyl]piperazin-1-yl}pyridine-3-carbonitrile] | 12.6 nM | – | 10 nM | 10 nM | – | – |
| N#Cc1ccc(N2CCN(Cc3cnc4cc(C5CC5)c(=O)[nH]c4c3)CC2)nc1 [Example 17] | 2 nM | – | 2.51 nM | – | – | – |
| CCc1cc2ncc(CN3CCN(c4ncc(F)cc4C#N)CC3)cc2[nH]c1=O [Example 56] | 63.1 nM | – | 100 nM | 15.8 nM | – | – |
| Cc1nc2c(F)c(F)c(CN3CCN(c4ccc(C#N)cn4)CC3)cc2[nH]c1=O [Example 72] | 39.8 nM | – | 63.1 nM | 15.8 nM | – | – |
| CCc1cc2ncc(CN3CCN(c4ccc(C#N)cc4F)CC3)cc2[nH]c1=O [Example 45] | 1 nM | – | 1.26 nM | – | – | – |
| N#Cc1ccc(N2CCN(Cc3cnc4cc(C(F)F)c(=O)[nH]c4c3)CC2)c(F)n1 [Example 62] | 1.26 nM | – | 1.58 nM | 63.1 nM | – | – |
| CCc1nc2cc(F)c(CN3CCN(c4ccc(C#N)cn4)CC3)cc2[nH]c1=O [Example 12, 6-{4-[(2-ethyl-7-fluoro-3-oxo-4H-quinoxalin-6-yl)methyl]piperazin-1-yl}pyridine-3-carbonitrile] | 10 nM | – | 10 nM | 7.94 nM | – | – |
| N#Cc1ccc(N2CCN(Cc3ccc4cc(Cl)c(=O)[nH]c4c3F)CC2)nc1 [Example 83, 6-{4-[(3-chloro-8-fluoro-2-oxo-1H-quinolin-7-yl)methyl]piperazin-1-yl}pyridine-3-carbonitrile] | 6.31 nM | – | 10 nM | 10 nM | – | – |
| Cc1cc2ccc(CN3CCN(c4ccc(C#N)cn4)CC3)c(F)c2[nH]c1=O [Example 71, 6-{4-[(8-fluoro-3-methyl-2-oxo-1H-quinolin-7-yl)methyl]piperazin-1-yl}pyridine-3-carbonitrile] | 15.8 nM | – | 12.6 nM | 10 nM | – | – |
| Cc1cc2ncc(CN3CCN(c4cc(F)c(F)cc4C#N)CC3)cc2[nH]c1=O [Example 53] | 5.01 nM | – | 6.31 nM | 12.6 nM | – | – |
| O=c1[nH]c2cc(CN3CCN(c4ccc(F)cn4)CC3)cnc2cc1Cl [Example 47, 3-chloro-7-{[4-(5-fluoropyridin-2-yl)piperazin-1-yl]methyl}-1H-1,5-naphthyridin-2-one] | 7.94 nM | – | 2.51 nM | 10 nM | – | – |
| N#Cc1ccc(N2CCN(Cc3cnc4cc(C5CC5)c(=O)[nH]c4c3)CC2)c(F)c1 [Example 46] | 1.58 nM | – | 2 nM | 10 nM | – | – |
| CCc1cc2ncc(CN3CCN(c4ccc(F)cn4)CC3)cc2[nH]c1=O [Example 4] | 2 nM | – | 2 nM | – | – | – |
| N#Cc1ccc(N2CCN(Cc3cnc4cc(C(F)F)c(=O)[nH]c4c3)CC2)c(Cl)n1 [Example 81] | 0.631 nM | – | 0.631 nM | 10 nM | – | – |
| CCc1cc2ncc(CN3CCN(c4ncc(C#N)cc4F)CC3)cc2[nH]c1=O [Example 54] | 79.4 nM | – | 63.1 nM | 63.1 nM | – | – |
| Cc1cc2ncc(CN3CCN(c4ccc(C#N)cc4C#N)CC3)cc2[nH]c1=O [Example 50] | 1.58 nM | – | 2 nM | 25.1 nM | – | – |
